This assay has as its target Genome polyprotein (dengue virus type 2, UniProt P29990). It is filed as functional, Thailand/16681/1984.

Each structure is given as a SMILES string. pIC50: −log10 of the molar value. Values joined by “and” are separate entries in the source; they are usually repeats but may differ in a detail not shown here. Equal entries are not always repeated. A value given as a limit tells only on which side of the number the result lay.

Genome polyprotein, sequence (P29990 1346-1475 limits assumed): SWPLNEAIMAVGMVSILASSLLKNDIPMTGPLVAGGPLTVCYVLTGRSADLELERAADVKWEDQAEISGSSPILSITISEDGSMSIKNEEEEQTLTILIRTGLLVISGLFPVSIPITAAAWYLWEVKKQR
Genome polyprotein, sequence (P29990 1476-2093 limits assumed): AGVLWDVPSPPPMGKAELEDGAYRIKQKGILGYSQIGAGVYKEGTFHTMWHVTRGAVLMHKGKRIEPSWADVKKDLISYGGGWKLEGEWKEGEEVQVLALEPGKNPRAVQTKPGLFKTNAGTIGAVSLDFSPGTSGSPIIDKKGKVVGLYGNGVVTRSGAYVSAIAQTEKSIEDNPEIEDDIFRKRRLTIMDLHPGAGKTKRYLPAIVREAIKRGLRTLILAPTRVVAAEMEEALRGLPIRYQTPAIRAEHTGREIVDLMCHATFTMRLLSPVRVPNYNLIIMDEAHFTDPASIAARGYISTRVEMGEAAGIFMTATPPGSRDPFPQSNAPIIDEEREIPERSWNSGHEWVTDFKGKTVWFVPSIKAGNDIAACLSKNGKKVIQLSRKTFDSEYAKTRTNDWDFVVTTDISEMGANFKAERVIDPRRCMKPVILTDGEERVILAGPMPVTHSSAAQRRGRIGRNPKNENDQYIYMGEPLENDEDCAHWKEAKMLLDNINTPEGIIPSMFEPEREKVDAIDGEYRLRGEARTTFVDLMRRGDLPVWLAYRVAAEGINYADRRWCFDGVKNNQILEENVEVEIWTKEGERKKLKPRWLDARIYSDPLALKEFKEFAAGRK

Turning to `c1ccc([C@@H]2C[C@H]3C[C@@H]2C[C@H]3NCc2n[nH]c3ccccc23)cc1`, the pIC50 was under 4.00.

Turning to `CCC1CN(C(=O)c2cc(Cl)ccc2NS(=O)(=O)c2ccc(Oc3ccccc3Cl)cc2)C1`, the pIC50 was under 4.00. The molecule `Cc1cc(NS(=O)(=O)c2ccc(Oc3ccccc3Cl)cc2)c(C(=O)NCC(F)(F)F)cc1F` gave a pIC50 of 4.66. In turn, `CC(C)n1cc(CNC(=O)[C@@H](NC(=O)OCc2ccccc2)c2ccc(OCc3ccccc3)cc2)cn1` showed a negative-log IC50 (pIC50) of under 4.00. `NCc1cccc(NC(=O)[C@H](NC(=O)OCc2ccccc2)C(C2CCC2)C2CCC2)c1`: the pIC50 was under 4.00. Turning to `O=C(N[C@@H](C(=O)NCc1cccc2c1CCNC2)c1ccc(OCc2ccccc2)cc1)OCc1ccccc1`, the pIC50 is 4.27. Molecule `NCC1(c2ccc(C(=O)N3CCc4scc(Br)c4C3)cc2)CC1` had a pIC50 of under 4.00. Take `CS(=O)(=O)c1ccc(-c2ccc(S(=O)(=O)Nc3ccc(Cl)cc3C(=O)O)cc2)cc1`: the negative logarithm of the IC50 (pIC50) is 4.47. In turn, `Nc1ccc2ccc(B(O)O)cc2c1` gave a pIC50 of under 4.00. Turning to `O=Cc1ccc(N2CCC(C(=O)NCC(=O)c3ccc(O)cc3)CC2)cc1`, the negative-log IC50 (pIC50) is 4.28. On to `NCc1cccc(CNC(=O)[C@@H](NC(=O)OCc2ccccc2)c2ccc(OCc3ccccc3)cc2)c1`, for which the negative logarithm of the IC50 (pIC50) was 4.66 and 4.92. On to `O=c1c2ccccc2nnn1CSc1nnc(-c2ccccc2)o1`, for which the pIC50 is under 4.00. Turning to `CCn1cc(-c2ccnc(N(C)C)c2)nc(N2CC[C@@H](CO)C2)c1=O`, the pIC50 was under 4.00. `CNC(=O)c1cc(OC)ccc1NS(=O)(=O)c1ccc(Oc2ccccc2Cl)cc1` gave a negative logarithm of the IC50 (pIC50) of under 4.00. `O=C(Nc1ccc2c(c1)CNC2)c1ncnc2ccsc12` gave a pIC50 of under 4.00. Turning to `NCc1cccc(N(C(=O)CNC(=O)OCc2ccccc2)c2ccc(OCc3ccccc3)cc2)c1`, the negative logarithm of the IC50 (pIC50) is under 4.00. `O=C(Nc1ccc2c(c1)CNC2)c1cc(F)cc(C=C2CCS(=O)(=O)CC2)c1` gave a negative logarithm of the IC50 (pIC50) of under 4.00. With `Cc1c(NC(=O)OCc2ccccc2)cc(C(=O)Nc2cccc(CN)c2)cc1C(F)(F)F` the figure was 4.04. On to `CCn1c(=O)c(N2CC[C@H](c3nccn3C)C2)nc2ccccc21`, for which the pIC50 was under 4.00. In the case of `NCc1cccc(NC(=O)C[C@H](NC(=O)OCc2ccccc2)C2CCCCC2)c1`, the pIC50 was 4.17 and 4.16. Take `CC(C)(C)OC(=O)Nc1cccc2[nH]cc(CN3CCC(c4cscn4)CC3)c12`: the pIC50 is under 4.00. `Cc1nnc(CSc2ncnc3sccc23)o1` showed a pIC50 of under 4.00. To `CN(C)Cc1cc(NC(=O)c2cc(Cl)cc(NC(=O)OCc3ccccc3)c2)sn1` belongs under 4.00; to `CCn1ccnc(N(C)[C@@H](CO)Cc2c[nH]c3ccccc23)c1=O`, under 4.00; to `CN(C)C(=O)[C@@H](NC(=O)OCc1ccccc1)c1ccc(OCc2ccccc2)cc1`, under 4.00. `CCNC(=O)Nc1cc(Cl)cc(C(=O)Nc2cccc(C3CCNCC3)c2)c1` gave a pIC50 of under 4.00. On to `C[C@@H](C(=O)Nc1cccc(CN)c1)c1ccc(OCc2ccccc2)cc1`, for which the pIC50 was under 4.00. In turn, `NCc1cccc(NC(=O)[C@H](NC(=O)OCc2ccccc2)c2ccc(CO)cc2)c1` showed a pIC50 of under 4.00.

In the case of `O=C(Nc1ccc2c(c1)CNC2)c1cc(Cl)cc2nn[nH]c12`, the pIC50 is under 4.00. Take `COc1ccc(NS(=O)(=O)c2ccc(Cl)cc2C(=O)O)cc1N1CCCC1=O`: the pIC50 is under 4.00. For the molecule `NCc1cccc(NC(=O)[C@H](NC(=O)c2ccccc2Cl)c2ccc(OCc3ccccc3)cc2)c1`, the pIC50 was 4.34. `NCc1cccc(NC(=O)[C@@H](NC(=O)OCc2ccccc2)C(C2CCC2)C2CCC2)c1`: the negative-log IC50 (pIC50) was < 4.00 and 4.00.

Turning to `O=C(NCC1CC1)c1cc(Cl)ccc1NS(=O)(=O)c1ccc(Oc2ccccc2Cl)cc1`, the pIC50 is 4.66. In the case of `NCCc1ccc(CNC(=O)[C@@H](NC(=O)OCc2ccccc2)c2ccc(OCc3ccccc3)cc2)cc1`, the negative-log IC50 (pIC50) is 4.67 and 4.66. As to `NCc1cccc(NC(=O)[C@]2(NC(=O)OCc3ccccc3)CCOc3ccccc32)c1`, the pIC50 was under 4.00.

In the case of `CC(C)c1cc(-c2ccc([C@@H](NC(=O)OCc3ccccc3)C(=O)Nc3cccc(CN)c3)cc2)on1`, the pIC50 was under 4.00.

These data come from ChEMBL document CHEMBL5604063, “ASAP - DENV-2 NS2B-NS3 protease fluorescence dose response” (2024).
